Reference: the SangsterLogP compilation

Tests used:
[1] = method code SF-AS, from Lembo, S.; Sasso, V.; Silipo, C.; Vittoria, A. (1983). Physicochemical properties and drug design in a set of analgesics. Farmaco [Sci], 38(10)750-761.; conditions: pH 7.4

Structure (SMILES)	logP	logD [1]
CC(=O)Nc1ccccc1C(C)=O	1.4	–
COc1ccccc1NC(C)=O	1.02	–
CC(=O)c1ccccc1NCCO	1.28	–
CC(=O)c1ccccc1NC(=O)C(Cl)Cl	–	2.65
COc1ccccc1NCCO	1.07	–
COc1ccccc1NC(=O)C(Cl)Cl	–	2.41
CCCCNc1ccccc1OC	–	2.85
COc1ccccc1NCC#N	–	1.3
CC(=O)c1ccccc1NCC#N	–	1.58

The next lines start with the values.

logP	logD [1]	Structure (SMILES)
1.51	–	NC(=O)c1ccccc1NC(=O)C(Cl)Cl
–	0.61	CC(=O)CNc1ccccc1C(N)=O
–	0.5	N#CCNc1ccccc1C(N)=O
0.31	–	CC(=O)Nc1ccccc1C(N)=O
–	1.49	COc1ccccc1NCC(C)=O
0.63	–	COc1ccccc1NCC(N)=O
–	2.33	CCCCNc1ccccc1C(N)=O
1.87	–	CC(C)Nc1ccccc1C(N)=O
